The source of these data is patent publication US8629158B2, “Azabicycloalkane-indole and azabicycloalkane-pyrrolo-pyridine MCH-1 antagonists, methods of making, and use thereof” (Albany Molecular Research, Inc., priority 2009, dated 2014).

For one series, the target named is human MCH-1 receptor (Homo sapiens (Human), UniProt Q99705). Kind of series: Binding Assay for Human Melanin-Concentrating Hormone (MCH-1) Receptor (radioligand displacement, CHO-K1 membranes). The following applies: membranes from CHO-K1 cells expressing human MCH1 receptor; [3H]-labeled radioligand; Ki from IC50 by Cheng Prusoff; read-out: MCH-1 Ki. As to the method: Evaluation of the affinity of compounds for the human MCH-1 receptor was accomplished using 4-(3,4,5-tritritiumbenzyloxy)-1-(1-(2-(pyrrolidin-1-yl)ethyl)-1H-indazol-5-yl)pyridin-2(1H)-one and membranes prepared from stable CHO-K1 cells expressing the human MCH1 receptor obtained from Euroscreen (Batch 1138). Cell membrane homogenates (8.92 μg protein) were incubated for 60 min at 25° C. with […] of the [^3H]-labeled compound in the absence or presence of the test compound in 50 mM Tris-HCl buffer, pH 7.4. Nonspecific binding was determined in the presence of 50 μM 1-(5-(4-cyanophenyl)bicyclo[3.1.0]hexan-2-yl)-3-(4-fluoro-3-(trifluoromethyl)phenyl)-1-(3-(4-methylpiperazin-1-yl)propyl)urea. Following incubation, the samples were filtered rapidly under vacuum through Skatron 11731 filters, pre-soaked in 0.5% polyethylenimine, and washed with ice-cold 50 mM Tris-HCl buffer, pH 7.4, (wash setting 9,9,0) using a Skatron cell harvester. The filters were counted for radioactivity in a liquid scintillation counter (Tri-Carb 2100TR, Packard) using a scintillation cocktail (Ultima Gold MV, Perkin Elmer).
Chain of human MCH-1 receptor (Q99705 whole entry): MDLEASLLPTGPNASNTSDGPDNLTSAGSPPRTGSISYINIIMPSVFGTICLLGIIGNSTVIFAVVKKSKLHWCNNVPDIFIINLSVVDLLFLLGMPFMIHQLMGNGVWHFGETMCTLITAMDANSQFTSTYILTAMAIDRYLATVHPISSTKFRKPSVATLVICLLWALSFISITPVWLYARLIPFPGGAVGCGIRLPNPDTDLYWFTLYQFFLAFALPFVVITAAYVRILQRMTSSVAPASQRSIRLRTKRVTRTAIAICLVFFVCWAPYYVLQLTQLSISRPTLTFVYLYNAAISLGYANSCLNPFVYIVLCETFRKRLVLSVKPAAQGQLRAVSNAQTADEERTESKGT
The results are expressed as a percent inhibition of the control radioligand specific binding. The IC50 value (concentration causing a half-maximal inhibition of control specific binding) and Hill coefficient (nH) were determined by non-linear regression analysis of the competition curve using Hill equation curve fitting. The inhibition constant (Ki) was calculated from the Cheng Prusoff equation: (Ki=IC50/(1+(L/KD)), where L=concentration of radioligand in the assay, and KD=affinity of the radioligand for the receptor.

Take `Cl.Cn1c2c(c3ccc(-n4ccc(-c5ccc(C(F)(F)F)nc5)cc4=O)cc31)C1CCCC(C2)N1` (centres unmarked) [Example 13, 1-(5-Methyl-6,7,8,9,10,11-hexahydro-7,11-imino-5H-cyclooct[b]indol-3-yl)-4-(6-(trifluoromethyl)pyridin-3-yl)pyridin-2(1H)-one hydrochloride]: the melting point was 265 to 274 °C (dec.). Besides, the inhibition constant Ki on human MCH-1 receptor was determined as 46.3 nM.
The like results for `Cc1ccc(COc2cnn(-c3ccc4c5c(n(C)c4c3)CC3CCCC5N3)c(=O)c2)cn1.Cl` (centres unmarked) [Example 18, 2-(5-Methyl-6,7,8,9,10,11-hexahydro-7,11-imino-5H-cyclooct[b]indol-3-yl)-5-((6-methylpyridin-3-yl)methoxy)pyridazin-3(2H)-one hydrochloride] were, in that order, 190 to 200 °C and 73 nM.
For `Cl.Cn1c2c(c3ccc(-n4ccc(OCc5ccc(C(F)(F)F)nc5)cc4=O)cc31)C1CCCC(C2)N1` (centres unmarked) [Example 19, 1-(5-Methyl-6,7,8,9,10,11-hexahydro-7,11-imino-5H-cyclooct[b]indol-3-yl)-4-((6-(trifluoromethyl)pyridin-3-yl)methoxy)pyridin-2 (1H)-one hydrochloride] the same measures were 240 to 250 °C and 13 nM.
The like results for `Cl.O=c1cc(OCc2ccccn2)ccn1-c1ccc2c3c([nH]c2c1)CC1CCC3N1` (centres unmarked) [Example 22, 1-(5,6,7,8,9,10-Hexahydro-7,10-iminocyclohept[b]indol-3-yl)-4-((pyridin-2-yl)methoxy)pyridin-2(1H)-one hydrochloride] were, in that order, 220 to 230 °C and 25 nM.
The compound `Cl.Cn1c2c(c3ccc(-n4ccc(OCc5ccccn5)cc4=O)cc31)C1CCC(C2)N1` (centres unmarked) [Example 23, 1-(5-Methyl-6,7,8,9,10-hexahydro-7,10-iminocyclohept[b]indol-3-yl)-4-((pyridin-2-yl)methoxy)pyridin-2(1H)-one hydrochloride] came in with a melting point of 175 to 195 °C. In addition, the Ki at human MCH-1 receptor is 17 nM.
For `CN1C2CCC1c1c(n(C)c3cc(-n4ccc(OCc5ccccc5)cc4=O)ccc13)C2.Cl` (centres unmarked) [Example 26, 4-(Benzyloxy)-1-(5,11-dimethyl-5,6,7,8,9,10-hexahydro-7,10-iminocyclohept[b]indol-3-yl)pyridin-2(1H)-one hydrochloride] the same measures were 121 to 128 °C and 9.7 nM.
The like results for `CC(=O)N1C2CCC1c1c(n(C)c3cc(-n4ccc(OCc5ccccc5)cc4=O)ccc13)C2` (centres unmarked) [Example 27, 1-(11-Acetyl-5-methyl-5,6,7,8,9,10-hexahydro-7,10-iminocyclohept[b]indol-3-yl)-4-(benzyloxy)pyridin-2(1H)-one] were, in that order, 91 to 96 °C and 131 nM.
The like results for `CN1C2CCCC1c1c(n(C)c3cc(-n4ccc(OCc5ccccc5)cc4=O)ccc13)C2.Cl` (centres unmarked) [Example 31, 4-(Benzyloxy)-1-(5,12-dimethyl-6,7,8,9,10,11-hexahydro-7,11-imino-5H-cyclooct[b]indol-3-yl)pyridin-2(1H)-one hydrochloride] were, in that order, 161 to 180 °C and 14 nM.
Regarding `Cl.Cn1c2c(c3ccc(-n4ccc(OCc5ccc(F)cn5)cc4=O)nc31)C1CCCC(C2)N1` (centres unmarked) [Example 40, 4-((5-Fluoropyridin-2-yl)methoxy)-1-(11-methyl-5,6,7,8,9,10-hexahydro-5,9-imino-11H-cycloocta[4,5]pyrrolo[2,3-b]pyridin-2-yl)pyridin-2(1H)-one hydrochloride], the melting point was in the range of 170 to 180 °C. The Ki on human MCH-1 receptor came to 49 nM.
The like results for `Cl.Cn1c2c(c3ccc(-n4ccc(OCc5ccccc5)cc4=O)nc31)C1CCCC(C2)N1` (centres unmarked) [Example 41, 4-(Benzyloxy)-1-(11-methyl-5,6,7,8,9,10-hexahydro-5,9-imino-11H-cycloocta[4,5]pyrrolo[2,3-b]pyridin-2-yl)pyridin-2(1H)-one hydrochloride] were, in that order, 191 to 206 °C and 30 nM.
